Source: US9649324B2, “Use of tylvalosin as antiviral agent” (ECO ANIMAL HEALTH LIMITED, priority 2006, dated 2017)

Experiments:
HRT-18 cells = test: Intracellular accumulation of macrolides in HRT-18 cells; assay type: in vitro ADME, human; settings: for intracellular:extracellular ratio: human, 10 μg/mL
Method: HRT-18 cells, in 6 cm tissue cultures dishes, were incubated in the presence of 0.5, 5 or 50 μg/mL tylvalosin. After 4 h, two dishes for each tylvalosin concentration and two dishes without antibiotic were removed from the incubator. A sample of medium (about 1 mL) was removed, placed in a labelled Eppendorf tube and stored at −20° C. The rest of the medium was then removed. Each of the cell monolayers was washed twice in PBS, using approximately 5 mL for each wash. The plunger from a 2 mL plastic syringe was used to gently scrape off the cells. PBS (500 μL) was added to the dish and the cells gently removed into this medium, using a micropipette. The sample was then placed in an Eppendorf tube and centrifuged at 8000×g in a bench centrifuge (Biofuge pico, Heraeus instruments) for 13 sec. An obvious cell pellet formed. The supernatant was removed using a micropipette and the cell material was stored at −20° C. in a labelled Eppendorf tube. After approximately 24 h the remaining tissue culture dishes were removed from the incubator and treated as described above for the 4 h samples. All the samples, including the 4 h samples, were then stored at −70° C.
HRT-18 cells were prepared as described above and used at passage 42. Stock solutions of antibiotics (either tylvalosin, tylosin or tilmicosin) were diluted in growth media and 10 μg/mL each antibiotic was added to the confluent cell monolayers. The cells were incubated at 37° C. in a 5% CO2 atmosphere for either 4 h or 24 h. The media and cells were harvested and tested for antibiotic, as described above.
(§1) All the supernatant and cell samples were transported frozen (at approximately −20° C.) to York Bioanalytical Solutions (York, England) for analysis. Briefly, 0.25 g of buffer (RPMI medium containing 10% FCS) was weighed into a polypropylene tube. A 50 μL volume of the appropriate working solution was added to the quality control (QC) samples. Methanol (50 μL) was added to each blank sample used for preparation of calibration standards, recovery samples and reagent blanks. A 2.5 mL volume of 0.1 M phosphate buffer was added to each sample, vortex mixed for approximately 1 min and then centrifuged at 3220×g for 10 min at 4° C.
(§2) For the liquid-liquid clean-up phase, an aliquot (100 μL) of the supernatant was transferred to a polypropylene tube. The pH was adjusted to pH 8-8.5 by the addition of 0.1 M NaOH, and vortex mixed. Ethyl acetate (5 mL) was added and after capping, the whole mixture was shaken for 10 min and then centrifuged at 3220×g for 10 min at 4° C.
(§3) Ammonium acetate (20 mM; pH native)—formic acid, 1000:3, v/v (100 μL) was added to each well in a 2 mL polypropylene collection plate. An aliquot of the ethyl acetate mixture (100 μL) was transferred to the polypropylene collection plate and evaporated under nitrogen (40° C.) until the ethyl acetate was fully evaporated whilst the ammonium acetate remained. Methanol (100 μL) was added to each well, excluding the calibration standards.
(§4) To each well containing a calibration standard, 100 μL of the appropriate calibration working solution was added. Samples were then vortex mixed for at least 10 min and submitted for liquid chromatography with tandem mass spectrometric analysis. The method stated was applicable to the samples of media (and the calibration standards and quality control samples).
(§5) For the cells, the sample tubes were weighed, and 100 μL of acetonitrile was added. The samples were vortex mixed for 10 sec, then centrifuged at 10285×g at 4° C. for 5 min. The sample was transferred to a polypropylene tube. The original sample tube was washed with 0.1 M phosphate buffer (1 mL). This was transferred to the polypropylene tube. A second wash of 1 mL was made, then a final wash of 0.5 mL. The polypropylene tube was now at the same stage as the end of the liquid extraction, but with the cells present rather than media. This was then taken through the sample preparation as described above. […]

[1] = in vivo; cited from earlier work
EAV = test: Sensitivity to chloroquine (Example 8), EAV
PRRSV [2] = test system: PRRSV
PRRSV [3] = test: Inhibitors of PRRSV infection added at various times pre and post infection (Example 7); assay type: cell-based; settings: for PRRSV spread / initial PRRSV infection (initial site of infection): added 2 or 4 hours after infection
[4] = test system: equine arteritis virus (EAV); test: Effect on equine arteritis virus infection (Example 6); assay type: cell-based
Method: Experiments were carried out to determine whether tylvalosin has an effect on equine arteritis virus (EAV).

LLC-PK1 cells = test: Intracellular accumulation in pig kidney epithelial cells; assay type: in vitro ADME; settings: pig, 75 min, 10 μg/mL
Method: LLC-PKI cells in 6 cm^2 plastic tissue culture dishes were incubated with 10 μg/mL of the different macrolides. Cells and medium were harvested as described above at 30, 75 and 120 min.
as §1, §2, §3, §4
(§6) For the cells, the sample tubes were weighed, and 100 μL of acetonitrile was added. The samples were vortex mixed for 10 sec, then centrifuged at 10285×g at 4° C. for 5 min. The sample was transferred to a polypropylene tube. The original sample tube was washed with 0.1 M phosphate buffer (1 mL). This was transferred to the polypropylene tube. A second wash of 1 mL was made, then a final wash of 0.5 mL. The polypropylene tube was now at the same stage as the end of the liquid extraction, but with the cells present rather than media. This was then taken through the sample preparation as described above. The original sample tubes were allowed to dry (i.e. any remaining solvent evaporated off) and were then reweighed to determine the weight of cells in the sample, to allow the concentration per gram of cells to be determined.

endosomal pH = test: Acridine orange assay of endosomal pH (Example 13); assay type: cell-based; settings: acridine orange stained endosomes, any cell line
Method: Acridine orange is a dye that causes cells to fluoresce green with the exception of acidic compartments (such as endosomes) that appear red—due to the protonation of the dye and quenching of the green fluorescence. A substance that raises the endosomal pH will prevent the appearance of the red fluorescence. The effect of Aivlosin® and other macrolide antibiotics on a the staining of endosomes by acridine orange in number of cells lines was determined (see FIG. 19). An area of cells grown on a glass coverslip is first selected using a DAPI stain. […] This selection procedure helps reduce any bias in the results. The green and red filters on the epifluorescence microscope were then used to examine about 20 cells. The number of red spots (endosome vesicles) in was determined. The average number of Acridine orange stained endosomes was counted.

[5] = test system: VR2332 (US strain of PRRSV); test: VR2332 (US strain of PRRSV) entry assay in MA104 cells (Example 10); settings: 4 h pretreatment, moi 10, overnight
PRRSV [6] = test: Effect of macrolides on PRRSV (background statement)
Caco-2 cells = test: Intracellular accumulation and trans-epithelial transport in polarised Caco-2 cells; assay type: in vitro ADME, human; settings: human, Caco-2, 240 min, 10 μg/mL
Method: Caco-2 cells were seeded at a density of 0.8×10^6 cells per well of a Transwell Clear filter 6 well plate, 0.4 μm pore size. The cells were incubated with 2 mL medium in both apical and basolateral chambers. This medium was replaced every 2 days for 10-14 days. Transepithelial resistance was measured using Millicell ERS apparatus (Millipore) at day 7, 10 and/or 14 in order to identify when the cells had become polarised. Readings of >1000 Ω were indicative of polarised cells. […]
as §1, §2, §3, §4, §6

[7] = test system: chicken white blood cells; test: Intracellular accumulation in chicken white blood cells; assay type: in vitro ADME; parameters: intracellular:extracellular ratio, variation during the experimental time period: dose or concentration left out as unconfirmed; settings: chicken
Method: Pig blood was collected in Heparin-coated BD vacutainers (6). 20 mL of blood and 30 mL of phosphate buffered saline (PBS) were mixed in a 50 mL conical centrifuge tube. This was repeated in order to obtain 3 such tubes. The mixtures were centrifuged for 10 min at 2050×g. The white blood cells, together with some red blood cells below, were harvested into a 50 mL conical centrifuge tube. PBS was added to about 50 mL. A 63% solution of Percoll was made as follows: 6.3 mL Percoll (Sigma), 1.0 mL 1.5 M NaCl, 2.7 mL H2O. 10 mL of 63% Percoll was added to each of two 50 mL conical centrifuge tubes. 25 mL of the resuspended white blood cells were carefully layered on top of the each of the Percoll solutions. A sharp interface was produced. The material was centrifuged at 3000×g for 10 min. […] The white blood cells were harvested in PBS (50 mL) and centrifuged at 500×g for 10 min. The cell pellet was resuspended in medium (Glasgow minimum essential medium containing penicillin and streptomycin). A viable cell count was made using trypan blue. The same method used for isolation of pig WBCs was used for the chicken WBCs, with the exception that heparin (100 I.U./mL) was prepared and mixed with an equal volume of chicken whole blood.
All tubes were placed on a rotary mixing machine, at 37° C. Supernatant and cell samples were harvested at the times described in the figure legends. Duplicate samples were used for each antibiotic for each time point.
as §1, §2, §3, §4, §5

For `CC[C@H]1OC(=O)C[C@@H](OC(C)=O)[C@H](C)[C@@H](O[C@@H]2O[C@H](C)[C@@H](O[C@H]3C[C@@](C)(O)[C@@H](O)[C@H](C)O3)[C@H](N(C)C)[C@H]2O)[C@@H](CC=O)C[C@@H](C)C(=O)/C=C/C(C)=C/C1CO[C@@H]1O[C@H](C)[C@@H](O)[C@@H](OC)[C@H]1OC` (stereo partly drawn) [3-acetyltylosin, 3-O-Acetyltylosin], the “uptake and accumulation in cells” value (HRT-18 cells) was “behave in the same way”.
In the case of `CC[C@H]1OC(=O)[C@H](C)[C@@H](O[C@H]2C[C@@](C)(OC)[C@@H](O)[C@H](C)O2)[C@H](C)[C@@H](O[C@@H]2O[C@H](C)C[C@H](N(C)C)[C@H]2O)[C@](C)(O)C[C@@H](C)CN(C)[C@H](C)[C@@H](O)[C@]1(C)O` [azithromycin], the “transintestinal elimination, share of the total administered dose” value [1] is listed as 30-35%.
For `CCN(CC)CCCC(C)Nc1ccnc2cc(Cl)ccc12` (stereo not drawn) [chloroquine], the “concentration required to inhibit infection” value (EAV) was at least 50 µM, the “concentration required to inhibit infection” value (PRRSV [2]) was “less than 5 μM” and the “concentration required to inhibit infection” value (FCV) was at least 200 µM. For the same molecule, the PRRSV spread (PRRSV [3]) was “no effect”, the “initial PRRSV infection (initial site of infection)” value (PRRSV [3]) was “no effect” and the “initial PRRSV infection” value (PRRSV [3]; added 4 hours before infection) was “inhibited”. For the same molecule, the “initial PRRSV infection” value (PRRSV [3]; added at the time of infection) was “inhibited”.
With `CN(C)CCCN1c2ccccc2Sc2ccc(Cl)cc21` [chlorpromazine] the PRRSV spread (PRRSV [3]) was “appeared to prevent spread”, the “initial PRRSV infection (initial site of infection)” value (PRRSV [3]) was “showed the initial site of infection” and the “initial PRRSV infection” value (PRRSV [3]; added 4 hours before infection) was “inhibited”. The “initial PRRSV infection” value (PRRSV [3]; added at the time of infection) was “inhibited”.
For `CC[C@H]1OC(=O)[C@H](C)[C@@H](O[C@H]2C[C@@](C)(OC)[C@@H](O)[C@H](C)O2)[C@H](C)[C@@H](O[C@@H]2O[C@H](C)C[C@H](N(C)C)[C@H]2O)[C@](C)(OC)C[C@@H](C)C(=O)[C@H](C)[C@@H](O)[C@]1(C)O` [clarithromycin], the “transintestinal elimination, share of the total administered dose” value [1] is listed as “about 10%”.
For `C=C1[C@@H](C)[C@H]2[C@H](Cc3ccccc3)NC(=O)[C@]23[C@H](OC(C)=O)/C=C/[C@@](C)(O)C(=O)[C@@H](C)C/C=C/[C@H]3[C@@H]1O` [cytochalasin D], the PRRSV spread (PRRSV [3]) was “no spread could be detected”, the “initial PRRSV infection (initial site of infection)” value (PRRSV [3]) was “no effect” and the “initial PRRSV infection” value (PRRSV [3]; added 4 hours before infection) was “inhibited”. For the same molecule, the “initial PRRSV infection” value (PRRSV [3]; added at the time of infection) was “inhibited”.
With `COC(=O)Nc1nc2ccc(C(=O)c3cccs3)cc2[nH]1` [nocodazole] the EAV infection [4] was “not blocked”, the “initial PRRSV infection (initial site of infection)” value (PRRSV [3]) was “no effect” and the “initial PRRSV infection” value (PRRSV [3]; added 4 hours before infection) was “inhibited”. For the same molecule, the “initial PRRSV infection” value (PRRSV [3]; added at the time of infection) was “did not inhibit”.
With `CC[C@H]1OC(=O)C[C@@H](O)[C@H](C)[C@@H](O[C@@H]2O[C@H](C)[C@@H](O[C@H]3C[C@@](C)(O)[C@@H](O)[C@H](C)O3)[C@H](N(C)C)[C@H]2O)[C@@H](CC=O)C[C@@H](C)C(=O)/C=C/C(C)=C/[C@@H]1CO[C@@H]1O[C@H](C)[C@@H](O)[C@@H](OC)[C@H]1OC` [tylosin] the average intracellular concentration (LLC-PK1 cells) was 2.41 μg/mg cells, the “effect on raising the pH in the endosomes” value (endosomal pH) was “did not have much effect” and the “intracellular:extracellular ratio” value (HRT-18 cells; 4 h) was “less than 1 fold”. The “intracellular:extracellular ratio” value (HRT-18 cells; 24 h) was “less than 1 fold”, the “inhibition of VR2332 infection” value [5] was “not” and the “effect on PRRSV” value (PRRSV [6]) was “no effect”. The average intracellular concentration (Caco-2 cells) was 1.86 μg/mg cells, the “basolateral chamber content as average % of the apical chamber value” (Caco-2 cells) was 0.52% and the “intracellular:extracellular ratio, variation during the experimental time period” value [7] was 2.65-4.7 fold. The average intracellular concentration ([7]; 15 min, 10 μg/mL) was 10.1 μg/mg cells and the intracellular concentration ([7]; 60 min, 10 μg/mL) was 32.1 μg/mg cells.
